Results: patent US20230277630A1, “METHODS AND COMPOSITIONS FOR TREATING AMYOTROPHIC LATERAL SCLEROSIS” (Amylyx Pharmaceuticals, Inc., priority 2022, published 2023)
Each block holds one compound with its values, some of them ahead of it.

How the values were obtained:
CYP2C9 = CYP2C9 (Homo sapiens, UniProt P11712); settings: 4 μM, pH 7.4
Protocol: The remaining of TA (expressed as the peak area ratio of test article to IS) was determined by LC-MS/MS. CYP enzyme activities of the HLM were verified in parallel by determining the formation of individual CYP probe metabolites by LC-MS/MS using standard curves.

[1] = CYP reaction phenotyping: CYP control (negative control without CYP enzymes); settings: pH 7.4
Protocol: The reaction was initiated by the addition of NADPH, followed by incubation at 37° C.

hrCYP2C9 = hrCYP2C9 (Homo sapiens, UniProt P11712)
hrCYP2C9, sequence (P11712 whole entry): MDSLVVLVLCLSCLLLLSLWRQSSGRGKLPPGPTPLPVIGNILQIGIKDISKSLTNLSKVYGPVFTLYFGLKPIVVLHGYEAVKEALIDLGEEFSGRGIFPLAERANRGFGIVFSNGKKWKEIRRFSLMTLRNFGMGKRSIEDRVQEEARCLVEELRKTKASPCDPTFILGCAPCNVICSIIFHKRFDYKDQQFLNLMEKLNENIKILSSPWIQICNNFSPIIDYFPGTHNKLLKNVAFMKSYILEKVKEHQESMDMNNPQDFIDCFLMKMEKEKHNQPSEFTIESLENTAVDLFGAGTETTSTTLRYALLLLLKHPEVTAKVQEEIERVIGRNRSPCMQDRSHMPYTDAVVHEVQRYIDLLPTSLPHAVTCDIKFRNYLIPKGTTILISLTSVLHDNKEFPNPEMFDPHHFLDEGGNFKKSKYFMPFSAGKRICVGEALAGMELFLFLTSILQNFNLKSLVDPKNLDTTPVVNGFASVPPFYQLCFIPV

CYP2D6 = CYP2D6 (Homo sapiens, UniProt P10635); experiment: Inhibition of CYP2D6 activity in human liver microsomes; assay type: in vitro ADME; set-up: co-incubated with pooled HLM (0.25 mg protein/mL); from tissue; host or cells: pooled human liver microsomes; settings: pooled human liver microsomes, pH 7.4, read-out: % of Control Enzyme Activity (n = 3) Average
CYP2D6, sequence (P10635 whole entry): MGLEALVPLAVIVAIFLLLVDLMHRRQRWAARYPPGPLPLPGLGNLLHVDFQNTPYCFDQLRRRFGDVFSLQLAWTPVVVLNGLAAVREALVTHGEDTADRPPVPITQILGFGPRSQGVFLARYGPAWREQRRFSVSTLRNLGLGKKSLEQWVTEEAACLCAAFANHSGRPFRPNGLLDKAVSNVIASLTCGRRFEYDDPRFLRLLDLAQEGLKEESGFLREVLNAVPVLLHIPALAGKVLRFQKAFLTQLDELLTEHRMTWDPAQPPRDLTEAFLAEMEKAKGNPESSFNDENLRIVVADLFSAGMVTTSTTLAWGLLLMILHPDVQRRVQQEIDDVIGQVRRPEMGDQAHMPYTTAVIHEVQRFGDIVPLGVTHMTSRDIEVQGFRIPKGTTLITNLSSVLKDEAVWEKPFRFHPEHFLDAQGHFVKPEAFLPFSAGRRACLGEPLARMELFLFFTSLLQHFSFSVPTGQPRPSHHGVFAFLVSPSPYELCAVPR

OCT2 [2] = target: T1, OCT2 (Homo sapiens, UniProt O15244); experiment: in vitro; settings: probe MPP+ (5 μM)
T1 sequence (O15244 1-555): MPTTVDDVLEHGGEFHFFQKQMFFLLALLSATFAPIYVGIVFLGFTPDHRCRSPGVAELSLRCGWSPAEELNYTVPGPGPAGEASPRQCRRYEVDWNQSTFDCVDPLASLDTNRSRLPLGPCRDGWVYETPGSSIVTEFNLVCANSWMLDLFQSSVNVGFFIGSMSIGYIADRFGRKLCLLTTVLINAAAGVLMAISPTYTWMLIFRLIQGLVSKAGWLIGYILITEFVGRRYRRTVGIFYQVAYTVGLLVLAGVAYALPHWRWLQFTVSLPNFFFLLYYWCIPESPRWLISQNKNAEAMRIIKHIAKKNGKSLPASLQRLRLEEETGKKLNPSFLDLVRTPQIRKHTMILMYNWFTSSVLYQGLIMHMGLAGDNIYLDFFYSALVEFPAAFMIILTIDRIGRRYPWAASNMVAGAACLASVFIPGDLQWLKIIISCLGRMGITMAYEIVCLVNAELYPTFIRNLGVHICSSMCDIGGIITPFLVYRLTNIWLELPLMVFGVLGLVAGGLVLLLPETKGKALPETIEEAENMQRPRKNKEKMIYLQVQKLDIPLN

OCT2 [3] = target: T1, OCT2; experiment: OCT2 inhibitor (IC50) assessment, MPP+ uptake in transfected HEK cells; settings: 5 μM MPP+ + 300 μM Imipramine
OAT3 [4] = target: T2, OAT3 (Homo sapiens, UniProt Q8TCC7); experiment: in vitro; settings: probe furosemide (5 μM)
T2 sequence (Q8TCC7 1-542): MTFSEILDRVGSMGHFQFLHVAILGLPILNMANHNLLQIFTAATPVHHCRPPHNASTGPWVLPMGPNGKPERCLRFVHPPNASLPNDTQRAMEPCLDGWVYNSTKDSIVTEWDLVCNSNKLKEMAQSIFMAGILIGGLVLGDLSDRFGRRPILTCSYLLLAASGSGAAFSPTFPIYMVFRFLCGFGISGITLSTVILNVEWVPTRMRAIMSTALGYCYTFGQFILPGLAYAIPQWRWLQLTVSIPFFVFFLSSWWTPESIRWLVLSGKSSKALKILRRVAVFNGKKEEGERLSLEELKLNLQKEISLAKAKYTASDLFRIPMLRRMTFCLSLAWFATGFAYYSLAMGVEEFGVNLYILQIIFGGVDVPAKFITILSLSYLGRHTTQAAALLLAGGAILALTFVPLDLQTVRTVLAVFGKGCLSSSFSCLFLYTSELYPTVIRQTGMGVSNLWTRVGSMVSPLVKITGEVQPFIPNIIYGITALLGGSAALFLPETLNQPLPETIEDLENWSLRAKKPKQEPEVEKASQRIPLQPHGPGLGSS

OAT3 [5] = target: T2, OAT3; experiment: OAT3 inhibitor (IC50) assessment, furosemide uptake in transfected HEK cells; settings: 5 μM Furosemide + 100 μM Probenecid
MATE2K [6] = target: T3, MATE2K (Homo sapiens, UniProt Q86VL8); experiment: in vitro; settings: probe metformin (50 μM)
T3 sequence (Q86VL8 1-566 isoform Q86VL8-3): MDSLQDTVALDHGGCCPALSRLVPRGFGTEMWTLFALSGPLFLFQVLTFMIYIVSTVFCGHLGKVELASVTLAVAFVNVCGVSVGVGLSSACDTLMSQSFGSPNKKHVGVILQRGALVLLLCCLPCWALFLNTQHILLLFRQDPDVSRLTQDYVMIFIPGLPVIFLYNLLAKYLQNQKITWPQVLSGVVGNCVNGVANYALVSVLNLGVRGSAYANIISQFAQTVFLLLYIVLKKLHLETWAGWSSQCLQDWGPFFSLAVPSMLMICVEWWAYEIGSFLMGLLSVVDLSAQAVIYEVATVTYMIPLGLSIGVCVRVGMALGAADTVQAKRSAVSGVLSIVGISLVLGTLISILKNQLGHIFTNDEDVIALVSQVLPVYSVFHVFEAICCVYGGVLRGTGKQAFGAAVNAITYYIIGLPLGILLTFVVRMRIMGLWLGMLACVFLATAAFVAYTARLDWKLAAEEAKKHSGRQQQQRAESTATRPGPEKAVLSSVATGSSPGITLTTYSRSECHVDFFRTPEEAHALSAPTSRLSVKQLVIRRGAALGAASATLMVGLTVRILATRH

MATE2K [7] = target: T3, MATE2K; experiment: MATE2K inhibitor (IC50) assessment, metformin uptake in transfected HEK cells; settings: 50 μM Metformin + 1 μM Pyrimethamine

CYP2C9, sequence (P11712 whole entry): as the sequence (P11712 whole entry) above

Compound: O=C(O)Cc1ccccc1Nc1c(Cl)cccc1Cl [Diclofenac]
Formation Rate Ratio (CYP2C9): 7.7 | Formation Rate [1]: 0 pmol metabolite/min/mg Supersome protein | Measured Metabolite [1]: 0 µM | Formation Rate Ratio (hrCYP2C9): >>2 | Formation Rate (hrCYP2C9; human, 20 min, 6 μM, pH 7.4): 845 pmol metabolite/min/mg Supersome protein | Measured Metabolite (hrCYP2C9; human, 20 min, 6 μM, pH 7.4): 1.56 µM

Compound: C=C[C@H]1C[N@@]2CC[C@H]1C[C@@H]2[C@@H](O)c1ccnc2ccc(OC)cc12 [Quinidine]
activity at 10 μM (CYP2D6): 5.61%

Compound: CN(C)CCCN1c2ccccc2CCc2ccccc21 [imipramine]
inhibition at 300 μM (OCT2 [2]): 97.9% | Percentage Inhibition of OCT2 (OCT2 [3]): 97.9%

Second part, the compound after the results:

inhibition at 100 μM (OAT3 [4]): 99.1% | Percentage Inhibition of OAT3 (OAT3 [5]): 99.1%
Compound: CCCN(CCC)S(=O)(=O)c1ccc(C(=O)O)cc1 [probenecid]

inhibition at 1 μM (MATE2K [6]): 85.3% | Percentage Inhibition of MATE2K (MATE2K [7]): 85.3%
Compound: CCc1nc(N)nc(N)c1-c1ccc(Cl)cc1 [pyrimethamine]
